Experimental data: publication PMC7570662, “In Vivo Pharmacokinetic Analysis Utilizing Non-Targeted and Targeted Mass Spectrometry and In Vitro Assay against Transient Receptor Potential Channels of Maobushisaishinto and Its Constituent Asiasari Radix” (Molecules, 2020)

Columns and labels:
[1] = Qualitative non-targeted LC-HRMS analysis of AR compounds in rat plasma after oral AR or MBST; type: in vivo
Experimental: Extract powders of AR or MBST were suspended in distilled water and orally administered to rats having fasted for approximately 16 h. The dose of AR was set at 2 g/kg, and the MBST doses were set at 1 and 2 g/kg. 1 g/kg MBST contained 578 µg/kg, 147 µg/kg, 226 µg/kg, 426 µg/kg asarinin, sesamin, methyl kakuol, and amide A, respectively. The doses were chosen based on a previous pharmacological study of MBST using rats.
According to previous pharmacokinetic studies of herbal medicines, many of the components were quickly absorbed into the bloodstream, thereby providing the rationale for a sampling time at 1 h. Blood was centrifuged at 1200× g at 4 °C for 30 min to obtain plasma; then, the sample was stored at −80 °C until LC-HRMS analysis. […]
The plasma samples were collected at 1 h after MBST administration in case of both the qualitative (non-targeted) analysis and the quantitative (targeted) analysis.
The plasma samples of AR- or MBST-treated rats collected at 1 h post-administration were pretreated by deproteinization using methanol before the LC-HRMS analysis as follows: 100 µL plasma sample was mixed with 500 µL methanol, and the resultant solution was vortexed for 2 min. The mixture was centrifuged at 7000× g at 4 °C for 5 min. The supernatant was dried using a centrifugal evaporator, and the dried residue was dissolved in 100 μL of the initial LC mobile phase which is composed of 0.1 vol% formic acid in water/acetonitrile (99.9/0.1, v/v) and recentrifuged at 7000× g at 4 °C for 5 min. Finally, a 5 μL aliquot of the supernatant was injected into the LC-HRMS system comprised of an Acquity Ultra-Performance Liquid Chromatography System (Waters, Milford, MA, USA) and a Xevo G2-XS quadrupole time-of-flight MS (Waters) and was chromatographically separated using an ACQUITY UPLC HSS T3 column (2.1 × 150 mm I.D., 1.8-μm particle size; Waters) with an ACQUITY UPLC HSS T3 VanGuard Pre-column (2.1 mm × 5 mm I.D., 1.8-μm particle size; Waters) at 40 °C. The mobile phase consisted of solution A (0.1% formic acid, v/v) and solution B (acetonitrile) with a gradient of solution B (0.1%, 0 min; 99%, 24 min; v/v) at a flow rate of 0.4 mL/min. The analysis of the mass spectrometer fit with an electrospray ionization probe with sensitivity mode was performed for both the positive and negative ion mode. The resolution of the mass spectrometer was set at >20,000. For MS^E experiments, two acquisition functions with different collision energies were created: a low-energy function with a collision energy of 6 eV and a high-energy function with collision energy ranging from 15 to 40 eV.

human TRPV1 = target: T1, human TRPV1 (Homo sapiens, UniProt Q8NER1); experiment: Ca2+ influx assay in TRPV1-expressing T-REx-293 cells; type: cell-based; settings: 10 µmol/L test compound, relative to 2 µmol/L capsaicin; for activation at 10 µM: T-REx-293, read-out: % of Activation Compared to Positive Control against Each Subfamily of TRP Channel TRPV1
T1 construct: Each full-length human TRPA1, TRPV1, TRPV4, and TRPM8 coding regions were introduced into a pcDNA4/TO vector; expressed in transfected cells; host or cells: T-REx-293 cells (tetracycline-induced, pcDNA4/TO vector)
Experimental: (§1) Each full-length human TRPA1, TRPV1, TRPV4, and TRPM8 coding regions were introduced into a pcDNA4/TO vector (Thermo Fisher Scientific, Waltham, MA, USA) and transfected into T-REx-293 cells (Thermo Fisher Scientific) to obtain stable cell lines expressing human TRPA1, TRPV1, TRPV4, and TRPM8. Cells were cultured in DMEM with 10% FBS, 4 mmol/L L-glutamine, and penicillin/streptomycin.
(§2) Cells were suspended in medium with 1 µg/mL tetracycline and seeded in poly-D-lysine coated 96-well plate at 2.5 × 10^4 cells/well. After overnight culture, the cells were used for Ca^2+ influx assay.
(§3) The Ca^2+ influx assay was performed using a FLIPR Calcium 5 Assay Kit (Molecular Devices, Sunnyvale, CA, USA) according to previously reported methods with minor modifications. In brief, cells were incubated with 80 µL Ca^2+-chelating dye dissolved in assay buffer at pH 7.4 (Hanks’ Balanced Salt Solution containing 20 mmol/L of N-2-hydroxyethylpiperazine-N’-2-ethanesulfonic acid) at room temperature for 30 min. The plates were assayed using a FlexStation 3 Microplate Reader (Molecular Devices). The fluorescence intensity was traced entirely for 80 s. The baseline of fluorescence was measured for 20 s before adding 20 µL of test compound (final concentration, 10 µmol/L). The response was expressed as percentage activation using the relative fluorescence units (RFU) (% activation = 100 × ((RFUmax − RFUbaseline)/RFUbaseline) − 100). Furthermore, the activities of each test compound against several subfamilies of TRP channels were represented as the relative enhancement of Ca^2+ influx of each positive control, indicated as follows: 20 µmol/L of allyl isothiocyanate (an agonist of TRPA1), 2 µmol/L of capsaicin (an agonist of TRPV1), 4 µmol/L of GSK1016790A (an agonist of TRPV4), and 20 µmol/L of icilin (an agonist of TRPM8). The dose–response curve was fitted to the sigmoidal dose-response equation (top, the max response of each compound), and EC50 values were calculated using GraphPad Prism 7 software (GraphPad, San Diego, CA, USA).

human TRPV4 = target: T2, human TRPV4 (Homo sapiens, UniProt Q9HBA0); experiment: Ca2+ influx assay in TRPV4-expressing T-REx-293 cells; type: cell-based; settings: 10 µmol/L test compound, relative to 4 µmol/L GSK1016790A; for activation at 10 µM: T-REx-293, read-out: % of Activation Compared to Positive Control against Each Subfamily of TRP Channel TRPV4
T2 construct: Each full-length human TRPA1, TRPV1, TRPV4, and TRPM8 coding regions were introduced into a pcDNA4/TO vector; expressed in transfected cells; host or cells: T-REx-293 cells (tetracycline-induced, pcDNA4/TO vector)
Experimental: as §1, §2, §3

human TRPA1 = target: T3, human TRPA1 (Homo sapiens, UniProt O75762); experiment: Ca2+ influx assay in TRPA1-expressing T-REx-293 cells; type: cell-based; settings: 10 µmol/L test compound, relative to 20 µmol/L allyl isothiocyanate; for activation at 10 µM: T-REx-293, read-out: % of Activation Compared to Positive Control against Each Subfamily of TRP Channel TRPA1
T3 construct: Each full-length human TRPA1, TRPV1, TRPV4, and TRPM8 coding regions were introduced into a pcDNA4/TO vector; expressed in transfected cells; host or cells: T-REx-293 cells (tetracycline-induced, pcDNA4/TO vector)
Experimental: as §1, §2, §3

human TRPM8 = target: T4, human TRPM8 (Homo sapiens, UniProt Q7Z2W7); experiment: Ca2+ influx assay in TRPM8-expressing T-REx-293 cells; type: cell-based; settings: 10 µmol/L test compound, relative to 20 µmol/L icilin; for activation at 10 µM: T-REx-293, read-out: % of Activation Compared to Positive Control against Each Subfamily of TRP Channel TRPM8
T4 construct: Each full-length human TRPA1, TRPV1, TRPV4, and TRPM8 coding regions were introduced into a pcDNA4/TO vector; expressed in transfected cells; host or cells: T-REx-293 cells (tetracycline-induced, pcDNA4/TO vector)
Experimental: as §1, §2, §3

T1 sequence (Q8NER1 whole entry): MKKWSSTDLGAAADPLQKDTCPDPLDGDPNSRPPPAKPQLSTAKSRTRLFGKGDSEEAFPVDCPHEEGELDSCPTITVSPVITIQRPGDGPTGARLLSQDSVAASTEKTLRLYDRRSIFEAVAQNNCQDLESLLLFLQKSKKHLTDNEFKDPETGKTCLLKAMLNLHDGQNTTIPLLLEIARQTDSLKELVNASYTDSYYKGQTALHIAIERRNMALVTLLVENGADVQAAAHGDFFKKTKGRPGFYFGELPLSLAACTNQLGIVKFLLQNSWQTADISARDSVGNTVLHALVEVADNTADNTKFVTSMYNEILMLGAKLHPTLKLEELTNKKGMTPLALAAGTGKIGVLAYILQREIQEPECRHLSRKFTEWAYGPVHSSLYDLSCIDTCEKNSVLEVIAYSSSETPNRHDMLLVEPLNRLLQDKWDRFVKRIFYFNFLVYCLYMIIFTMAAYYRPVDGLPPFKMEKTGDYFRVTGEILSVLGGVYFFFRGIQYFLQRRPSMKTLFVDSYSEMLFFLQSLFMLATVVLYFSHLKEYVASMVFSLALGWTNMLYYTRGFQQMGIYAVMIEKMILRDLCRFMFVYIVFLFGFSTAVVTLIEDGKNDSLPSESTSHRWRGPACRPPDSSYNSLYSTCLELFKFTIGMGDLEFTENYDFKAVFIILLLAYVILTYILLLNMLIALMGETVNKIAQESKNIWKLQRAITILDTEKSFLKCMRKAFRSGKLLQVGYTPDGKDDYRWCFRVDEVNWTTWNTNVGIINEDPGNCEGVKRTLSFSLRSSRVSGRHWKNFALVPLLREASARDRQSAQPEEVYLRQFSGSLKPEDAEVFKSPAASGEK
T2 sequence (Q9HBA0 whole entry): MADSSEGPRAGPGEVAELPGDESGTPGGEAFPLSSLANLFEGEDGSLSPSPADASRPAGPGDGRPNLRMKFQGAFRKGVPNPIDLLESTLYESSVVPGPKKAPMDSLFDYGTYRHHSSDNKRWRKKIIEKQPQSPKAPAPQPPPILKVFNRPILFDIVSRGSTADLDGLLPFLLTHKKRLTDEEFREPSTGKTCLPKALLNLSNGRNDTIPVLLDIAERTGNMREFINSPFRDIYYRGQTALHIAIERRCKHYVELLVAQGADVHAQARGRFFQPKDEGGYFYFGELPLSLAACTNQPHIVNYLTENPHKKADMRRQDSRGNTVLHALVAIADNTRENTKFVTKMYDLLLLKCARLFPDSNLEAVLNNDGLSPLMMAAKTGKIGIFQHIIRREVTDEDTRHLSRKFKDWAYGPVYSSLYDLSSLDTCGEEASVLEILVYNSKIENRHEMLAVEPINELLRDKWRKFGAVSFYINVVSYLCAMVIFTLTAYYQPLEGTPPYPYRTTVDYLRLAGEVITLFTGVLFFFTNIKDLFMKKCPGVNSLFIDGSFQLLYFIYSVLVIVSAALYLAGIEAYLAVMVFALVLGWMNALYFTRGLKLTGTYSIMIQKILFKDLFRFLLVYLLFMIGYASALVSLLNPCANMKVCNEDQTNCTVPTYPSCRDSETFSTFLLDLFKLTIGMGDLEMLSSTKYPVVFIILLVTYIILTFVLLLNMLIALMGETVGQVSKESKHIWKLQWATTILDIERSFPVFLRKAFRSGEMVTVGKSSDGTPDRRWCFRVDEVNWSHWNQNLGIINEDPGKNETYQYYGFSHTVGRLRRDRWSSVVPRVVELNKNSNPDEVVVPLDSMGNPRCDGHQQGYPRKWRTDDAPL
T3 sequence (O75762 whole entry): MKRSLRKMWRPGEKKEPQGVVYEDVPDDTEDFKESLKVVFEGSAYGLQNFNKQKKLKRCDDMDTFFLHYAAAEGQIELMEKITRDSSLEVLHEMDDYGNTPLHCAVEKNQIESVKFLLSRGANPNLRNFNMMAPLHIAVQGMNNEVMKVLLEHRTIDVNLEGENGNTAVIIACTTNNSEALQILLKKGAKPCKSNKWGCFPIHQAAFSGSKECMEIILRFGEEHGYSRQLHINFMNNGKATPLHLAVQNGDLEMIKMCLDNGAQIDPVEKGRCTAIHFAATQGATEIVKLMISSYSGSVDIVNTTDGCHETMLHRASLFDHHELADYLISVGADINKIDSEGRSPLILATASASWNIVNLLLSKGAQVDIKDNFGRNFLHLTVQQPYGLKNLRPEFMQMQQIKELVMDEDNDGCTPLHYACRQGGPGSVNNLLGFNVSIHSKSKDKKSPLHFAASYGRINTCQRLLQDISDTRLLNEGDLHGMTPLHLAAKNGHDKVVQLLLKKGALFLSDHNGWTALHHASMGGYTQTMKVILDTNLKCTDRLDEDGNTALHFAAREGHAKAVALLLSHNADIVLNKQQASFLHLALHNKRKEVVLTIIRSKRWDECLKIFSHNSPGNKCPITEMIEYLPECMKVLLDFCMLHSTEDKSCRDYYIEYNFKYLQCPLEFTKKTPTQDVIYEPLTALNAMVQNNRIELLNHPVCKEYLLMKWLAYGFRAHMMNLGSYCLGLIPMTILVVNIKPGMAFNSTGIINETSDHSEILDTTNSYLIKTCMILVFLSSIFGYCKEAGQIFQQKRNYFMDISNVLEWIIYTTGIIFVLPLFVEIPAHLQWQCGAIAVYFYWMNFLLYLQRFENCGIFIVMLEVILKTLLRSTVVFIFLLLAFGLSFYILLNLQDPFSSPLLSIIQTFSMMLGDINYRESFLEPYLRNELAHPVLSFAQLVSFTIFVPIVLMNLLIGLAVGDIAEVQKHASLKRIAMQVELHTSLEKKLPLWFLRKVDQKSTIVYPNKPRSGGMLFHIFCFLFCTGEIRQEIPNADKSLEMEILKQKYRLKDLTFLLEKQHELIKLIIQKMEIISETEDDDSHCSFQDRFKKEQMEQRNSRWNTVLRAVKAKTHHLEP
T4 sequence (Q7Z2W7 whole entry): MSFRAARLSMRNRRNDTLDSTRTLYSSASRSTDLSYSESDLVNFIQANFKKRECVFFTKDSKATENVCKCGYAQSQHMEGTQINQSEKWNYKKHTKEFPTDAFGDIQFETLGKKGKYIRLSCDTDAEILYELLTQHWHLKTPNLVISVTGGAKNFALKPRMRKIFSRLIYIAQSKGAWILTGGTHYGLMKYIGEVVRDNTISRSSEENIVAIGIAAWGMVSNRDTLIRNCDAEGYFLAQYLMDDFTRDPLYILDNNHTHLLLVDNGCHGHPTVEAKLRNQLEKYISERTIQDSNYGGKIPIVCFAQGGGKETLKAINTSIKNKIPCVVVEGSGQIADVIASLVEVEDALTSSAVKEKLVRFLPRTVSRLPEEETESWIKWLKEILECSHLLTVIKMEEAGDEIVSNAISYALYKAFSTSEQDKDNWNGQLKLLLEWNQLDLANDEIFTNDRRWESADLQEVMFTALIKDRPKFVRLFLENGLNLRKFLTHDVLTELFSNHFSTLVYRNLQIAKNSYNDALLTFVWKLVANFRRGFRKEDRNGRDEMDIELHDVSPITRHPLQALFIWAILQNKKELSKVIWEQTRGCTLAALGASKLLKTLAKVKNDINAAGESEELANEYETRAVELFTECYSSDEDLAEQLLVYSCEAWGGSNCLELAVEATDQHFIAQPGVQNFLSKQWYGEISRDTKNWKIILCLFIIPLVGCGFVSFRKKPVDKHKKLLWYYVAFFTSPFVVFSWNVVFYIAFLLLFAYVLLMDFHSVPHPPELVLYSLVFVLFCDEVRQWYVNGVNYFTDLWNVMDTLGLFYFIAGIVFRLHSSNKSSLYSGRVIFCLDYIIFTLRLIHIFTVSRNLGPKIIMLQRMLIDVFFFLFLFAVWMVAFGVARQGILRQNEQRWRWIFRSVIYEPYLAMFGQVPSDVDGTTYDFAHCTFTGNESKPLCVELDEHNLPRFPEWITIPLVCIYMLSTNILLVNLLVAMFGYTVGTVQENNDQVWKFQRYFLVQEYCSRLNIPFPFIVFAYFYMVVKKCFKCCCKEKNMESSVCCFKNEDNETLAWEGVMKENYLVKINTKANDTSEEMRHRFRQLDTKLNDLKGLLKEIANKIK

Compound | AR-Treated Rat Plasma (detection of compound) ([1]; rat plasma 1 h after oral 2 g/kg AR, n = 1, LC-HRMS) | MBST-Treated Rat Plasma (detection of compound) ([1]; rat plasma 1 h after oral 2 g/kg MBST, n = 3, LC-HRMS) | activation at 10 µM (human TRPV1) [%] | activation at 10 µM (human TRPV4) [%] | activation at 10 µM (human TRPA1) [%] | activation at 10 µM (human TRPM8) [%] | % of Activation Compared to Positive Control against Each Subfamily of TRP Channel TRPV1 (human TRPV1) [%] | % of Activation Compared to Positive Control against Each Subfamily of TRP Channel TRPV4 (human TRPV4) [%] | % of Activation Compared to Positive Control against Each Subfamily of TRP Channel TRPA1 (human TRPA1) [%] | % of Activation Compared to Positive Control against Each Subfamily of TRP Channel TRPM8 (human TRPM8) [%]
COc1cc(O)cc2c1cc([N+](=O)[O-])c1c(C(=O)O)cc3c(c12)OCO3 [Aristolochic acid Iva] | + (The number of plus signs represents the sample number in which the compound was detected among AR-treated rat plasma (n = 1) and MBST-treated rat plasma (n = 3)) | + + + (The number of plus signs represents the sample number in which the compound was detected among AR-treated rat plasma (n = 1) and MBST-treated rat plasma (n = 3)) | – | – | – | – | – | – | – | –
CN[C@@H](C)[C@H](O)c1ccccc1 [Ephedrine, (1R,2S)-(−)-Ephedrine, reference compound] | – | – | -0.5 | -0.4 | 3 | 3.2 | – | – | – | –
C=C1[C@H]2C[C@@H]3[C@H]4N5C[C@@]6(C)[C@H]7[C@@H]5C[C@]3([C@@H]1O)[C@@](O)(C2)[C@]74C[C@@H](OC(=O)c1ccccc1)[C@@H]6O [Ignavine] | – | – | – | – | – | – | −0.2 | −0.1 | 2 | 1.8
Oc1cc(O)c2c(c1)O[C@H](c1cc(O)c(O)c(O)c1)[C@H](O)C2 [Epigallocatechin] | – | – | -0.2 | 0.1 | 2 | 4.8 | – | – | – | –
O.Oc1cc(O)c2c(c1)O[C@H](c1ccc(O)c(O)c1)[C@@H](O)C2 [Catechin] | – | – | – | – | – | – | −0.3 | 0.3 | 6 | 4.0
CC(C(O)c1ccccc1)[N+](C)(C)[O-] (stereo not shown) [Methylephedrine N-oxide] | – | – | – | – | – | – | 0.3 | 1.8 | 21 | 4.5
O=C(O)CNC(=O)c1ccccc1 [Hippuric acid] | – | – | 1 | 2.8 | 13 | 7.5 | – | – | – | –
CCN1C[C@]2(COC)[C@H](O)C[C@H](OC)[C@@]34[C@@H]5C[C@@]6(O)[C@H](OC(=O)c7ccccc7)[C@@H]5[C@@](O)([C@@H]([C@H](OC)[C@H]23)[C@@H]14)[C@@H](O)[C@@H]6OC [Benzoylaconitine] | – | – | – | – | – | – | −0.2 | 0.0 | 3 | 3.6
CN[C@@H](C)[C@@H](O)c1ccccc1 [Pseudoephedrine, (S,S)-(+)-pseudoephedrine, reference compound] | – | – | -0.2 | -0.3 | 4 | 2.8 | – | – | – | –
